Patent publication US20080188528A1, “Modulators of C3a receptor and methods of use thereof” (priority 2006, published 2008)
Counter-ions that a name gives are not always drawn. One block for each molecule: values may come before it.

Biological target: T1, human C3a receptor (C3aR) (Homo sapiens, UniProt Q16581)
T1 construct: expressed in transfected cells
T1 sequence (Q16581 1-482): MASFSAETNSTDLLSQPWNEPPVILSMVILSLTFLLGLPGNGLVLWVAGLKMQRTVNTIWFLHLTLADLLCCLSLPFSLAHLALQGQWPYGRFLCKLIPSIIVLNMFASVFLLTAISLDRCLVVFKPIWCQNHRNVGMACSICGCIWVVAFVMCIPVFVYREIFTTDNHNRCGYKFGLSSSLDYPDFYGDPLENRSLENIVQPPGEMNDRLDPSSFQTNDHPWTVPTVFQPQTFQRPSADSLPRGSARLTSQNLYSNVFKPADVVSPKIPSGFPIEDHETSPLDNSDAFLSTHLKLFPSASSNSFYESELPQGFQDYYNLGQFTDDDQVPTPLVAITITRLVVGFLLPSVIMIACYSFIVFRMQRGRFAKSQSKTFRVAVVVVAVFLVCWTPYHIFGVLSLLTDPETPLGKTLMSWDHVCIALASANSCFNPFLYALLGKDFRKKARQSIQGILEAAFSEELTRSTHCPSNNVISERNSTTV
Assay: Inhibition of human [125I]-C3a binding to human C3a receptor (SPA, membranes of HEK293 cells expressing recombinant C3aR)
Settings: 0.1 nM [125I]-C3a, 3 hours at room temperature
Procedure: Inhibition of human [^125I]-C3a binding to human C3a receptor
Binding of human [^125I]-C3a to human C3a receptor (C3aR) was done using cell membranes from HEK293 cells stably expressing recombinant C3aR, in a homogeneous scintillation proximity assay (SPA). The C3aR cell membranes were pre-coupled over-night at 4° C. to WGA-PVT SPA beads (Amersham) at a ratio of 10 μg cell membrane to 0.5 mg beads/assay. Assay was performed in 96-well microtiter Optiplates (Packard) by mixing coupled beads and 0.1 nM [^125I]-C3a (2200 Ci/mmol, Perkin Elmer Life Sciences), in a total volume of […] binding buffer (20 mM HEPES, pH 7.4, 125 mM NaCl, 5 mM KCl, 1 mM CaCl2, 1 mM MgCl2, 0.25% BSA, 0.2% CHAPS). Test compounds were diluted in DMSO and were tested for their inhibitory potential in the assay (final concentration≦1% DMSO). Incubation was done for 3 hours at room temperature followed by reading in a TopCount scintillation microplate reader. Non-specific binding was determined by adding 1 μM unlabeled C3a (Calbiochem) to the assay mixture. Calculation of the IC50 was done as above using a nonlinear least square fitting program, with Graphpad Prism.

SMILES: CC(=N)NCCC[C@H](NC(=O)c1ccc(C(c2ccccc2)c2ccccc2)s1)C(=O)O [Compound 103, (2S)-2-({[5-(diphenylmethyl)thiophen-2-yl]carbonyl}amino)-5-(ethanimidoylamino)pentanoic acid•TFA]
IC50 (Table 6): 50 to 500 nM

SMILES: N=C(N)NCCC[C@H](NC(=O)c1cccn(Cc2cccc(Cl)c2)c1=O)C(=O)O [Compound 38, (2S)-5-carbamimidamido-2-({[1-(3-chlorobenzyl)-2-oxo-1,2-dihydropyridin-3-yl]carbonyl}amino)pentanoic acid•TFA]
IC50 (Table 1): < 50 nM

SMILES: Cc1cc(C)cc(C(c2cc(C)cc(C)c2)n2cccc(C(=O)N[C@@H](CCCNC(=N)N)C(=O)O)c2=O)c1 [Compound 47, (2S)-2-[({1-[bis(3,5-dimethylphenyl)methyl]-2-oxo-1,2-dihydropyridin-3-yl}carbonyl)amino]-5-carbamimidamidopentanoic acid•TFA]
IC50 (Table 2): < 50 nM

SMILES: Cc1ccc(S(=O)(=O)NC(=N)NCCC[C@H](NC(=O)c2cccn(C(c3ccccc3)c3ccccc3)c2=O)C(=O)O)cc1 [Compound 77, (2S)-2-({[1-(diphenylmethyl)-2-oxo-1,2-dihydropyridin-3-yl]carbonyl}amino)-5-{[(4-methylphenyl)sulfonyl]carbamimidamido}pentanoic acid]
IC50 (Table 4): 50 to 500 nM

SMILES: N=C(N)NCCCC[C@H](NC(=O)c1cccn(Cc2ccccc2)c1=O)C(=O)O [Compound 63, (2S)-2-{[(1-benzyl-2-oxo-1,2-dihydropyridin-3-yl)carbonyl]amino}-6-carbamimidamidohexanoic acid•TFA]
IC50 (Table 4): 500 to 20000 nM

SMILES: CC(=N)NCCC[C@H](NC(=O)c1ccc(C(c2ccccc2Cl)c2ccccc2Cl)s1)C(=O)O [Compound 126, (2S)-2-[({5-[bis(2-chlorophenyl)methyl]thiophen-2-yl}carbonyl)amino]-5-(ethanimidoylamino)pentanoic acid•TFA]
IC50 (Table 6): 500 to 20000 nM

SMILES: O=C(N[C@@H](CCCNC1=NCCN1)C(=O)O)c1cccn(Cc2ccccc2)c1=O [Compound 70, (2S)-2-{[(1-benzyl-2-oxo-1,2-dihydropyridin-3-yl)carbonyl]amino}-5-(4,5-dihydro-1H-imidazol-2-ylamino)pentanoic acid•TFA]
IC50 (Table 4): 500 to 20000 nM

SMILES: Cc1ccc(S(=O)(=O)NC(=N)NCCC[C@H](NC(=O)c2cccn(Cc3ccccc3)c2=O)C(=O)O)cc1 [Compound 76, (2S)-2-{[(1-benzyl-2-oxo-1,2-dihydropyridin-3-yl)carbonyl]amino}-5-{[(4-methylphenyl)sulfonyl]carbamimidamido} pentanoic acid]
IC50 (Table 4): 500 to 20000 nM

SMILES: N=C(N)NCCC[C@H](NC(=O)c1cccn(Cc2ccc3cc(F)ccc3c2)c1=O)C(=O)O [Compound 17, (2S)-5-carbamimidamido-2-[({1-[(6-fluoro-2-naphthyl)methyl]-2-oxo-1,2-dihydropyridin-3-yl}carbonyl)amino]pentanoic acid•TFA]
IC50 (Table 1): < 50 nM

SMILES: CC(=N)NCCC[C@H](NC(=O)c1ccc(C(c2cccc(Cl)c2)c2cccc(Cl)c2)s1)C(=O)O [Compound 131, (2S)-2-[({5-[bis(3-chlorophenyl)methyl]thiophen-2-yl}carbonyl)amino]-5-(ethanimidoylamino)pentanoic acid•TFA]
IC50 (Table 6): < 50 nM

SMILES: CC(=N)NCCC[C@H](NC(=O)c1cccn(Cc2ccccc2Cl)c1=O)C(=O)O [Compound 104, (2S)-2-({[1-(2-chlorobenzyl)-2-oxo-1,2-dihydropyridin-3-yl]carbonyl}amino)-5-(ethanimidoylamino)pentanoic acid•TFA]
IC50 (Table 6): 500 to 20000 nM

SMILES: N=C(N)NCCC[C@H](NC(=O)c1ccc(Cc2ccccc2)cc1)C(=O)O [Compound 51, (2S)-2-[(4-benzylbenzoyl)amino]-5-carbamimidamidopentanoic acid•TFA]
IC50 (Table 3): 50 to 500 nM

SMILES: CC(=N)NCCC[C@H](NC(=O)c1cccn(Cc2ccccc2C(F)(F)F)c1=O)C(=O)O [Compound 107, (2S)-5-(ethanimidoylamino)-2-[({2-oxo-1-[2-(trifluoromethyl)benzyl]-1,2-dihydropyridin-3-yl}carbonyl)amino]pentanoic acid•TFA]
IC50 (Table 6): 500 to 20000 nM

SMILES: CC(=N)NCCC[C@H](NC(=O)c1cccn(Cc2cc(F)cc(F)c2)c1=O)C(=O)O [Compound 117, (2S)-2-({[1-(3,5-difluorobenzyl)-2-oxo-1,2-dihydropyridin-3-yl]carbonyl}amino)-5-(ethanimidoylamino)pentanoic acid•TFA]
IC50 (Table 6): 50 to 500 nM

SMILES: O=C(N[C@@H](Cc1c[nH]c2ccccc12)C(=O)O)c1cccn(C(c2ccccc2)c2ccccc2)c1=O [Compound 105, (2S)-2-({[1-(Diphenylmethyl)-2-oxo-1,2-dihydropyridin-3-yl]carbonyl}amino)-3-(1H-indol-3-yl)propanoicacid]
IC50 (Table 6): 50 to 500 nM

SMILES: CC(=N)NCCC[C@H](NC(=O)c1cccn(Cc2cccc(Br)c2)c1=O)C(=O)O [Compound 109, (2S)-2-({[1-(3-bromobenzyl)-2-oxo-1,2-dihydropyridin-3-yl]carbonyl}amino)-5-(ethanimidoylamino)pentanoic acid•TFA]
IC50 (Table 6): 50 to 500 nM

SMILES: CCOC(=O)N=C(NC)NCC[C@H](NC(=O)c1cccn(C(c2ccccc2)c2ccccc2)c1=O)C(=O)O [Compound 66, (2S)-2-({[1-(diphenylmethyl)-2-oxo-1,2-dihydropyridin-3-yl]carbonyl}amino)-4-{[[(ethoxycarbonyl)amino](methylamino)methylene]amino}butanoic acid]
IC50 (Table 4): 500 to 20000 nM

SMILES: CC(C)c1cccc(Cn2cccc(C(=O)N[C@@H](CCCNC(=N)N)C(=O)O)c2=O)c1 [Compound 7, (2S)-5-carbamimidamido-2-({[1-(3-isopropylbenzyl)-2-oxo-1,2-dihydropyridin-3-yl]carbonyl}amino)pentanoic acid•TFA]
IC50 (Table 1): 50 to 500 nM

Further lines, results first:

IC50 (Table 2): < 50 nM
SMILES: Cc1ccccc1C(c1ccccc1C)n1cccc(C(=O)N[C@@H](CCCNC(=N)N)C(=O)O)c1=O [Compound 42, (2S)-2-[({1-[bis(2-methylphenyl)methyl]-2-oxo-1,2-dihydropyridin-3-yl}carbonyl)amino]-5-carbamimidamidopentanoic acid•TFA]

IC50 (Table 4): 500 to 20000 nM
SMILES: CCOC(=O)N=C(N)NCCC[C@H](NC(=O)c1cccn(C(c2ccccc2)c2ccccc2)c1=O)C(=O)O [Compound 83, (2S)-2-({[1-(diphenylmethyl)-2-oxo-1,2-dihydropyridin-3-yl]carbonyl}amino)-5-[(ethoxycarbonyl)carbamimidamido]pentanoic acid]

IC50 (Table 3): 500 to 20000 nM
SMILES: N=C(N)NCCC[C@H](NC(=O)c1ccc(=O)n(C(c2ccccc2)c2ccccc2)c1)C(=O)O [Compound 57, (2S)-5-carbamimidamido-2-({[1-(diphenylmethyl)-6-oxo-1,6-dihydropyridin-3-yl]carbonyl}amino)pentanoic acid•TFA]

IC50 (Table 4): 500 to 20000 nM
SMILES: N=C(N)NCCC[C@H](NC(=O)c1cccn(C(c2ccccc2)c2ccccc2)c1=O)C(N)=O [Compound 81, N-[(1S)-4-carbamimidamido-1-carbamoylbutyl]-1-(diphenylmethyl)-2-oxo-1,2-dihydropyridine-3-carboxamide-TFA]

IC50 (Table 1): 50 to 500 nM
SMILES: N=C(N)NCCC[C@H](NC(=O)c1cccn(Cc2ccc(Cc3ccccc3)cc2)c1=O)C(=O)O [Compound 25, (2S)-2-({[1-(4-benzylbenzyl)-2-oxo-1,2-dihydropyridin-3-yl]carbonyl}amino)-5-carbamimidamidopentanoic acid•TFA]

IC50 (Table 6): < 50 nM
SMILES: N=C(CC(=O)O)NCCC[C@H](NC(=O)c1cccn(C(c2ccccc2)c2ccccc2)c1=O)C(=O)O [Compound 96, (2S)-5-[(2-carboxyethanimidoyl)amino]-2-({[1-(diphenylmethyl)-2-oxo-1,2-dihydropyridin-3-yl]carbonyl}amino)pentanoic acid•TFA]

IC50 (Table 1): < 50 nM
SMILES: N=C(N)NCCC[C@H](NC(=O)c1cccn(CC(c2ccccc2)c2ccccc2)c1=O)C(=O)O [Compound 11, (2S)-5-carbamimidamido-2-({[1-(2,2-diphenylethyl)-2-oxo-1,2-dihydropyridin-3-yl]carbonyl}amino)pentanoic acid•TFA]

IC50 (Table 1): 50 to 500 nM
SMILES: N=C(N)NCCC[C@H](NC(=O)c1cccn(Cc2cccc(Cc3ccccc3)c2)c1=O)C(=O)O [Compound 24, (2S)-2-({[1-(3-benzylbenzyl)-2-oxo-1,2-dihydropyridin-3-yl]carbonyl}amino)-5-carbamimidamidopentanoic acid•TFA]

IC50 (Table 1): 500 to 20000 nM
SMILES: N=C(N)NCCC[C@H](NC(=O)c1cccn(-c2ccc(-c3ccccc3)cc2)c1=O)C(=O)O [Compound 34, (2S)-2-{[(1-biphenyl-4-yl-2-oxo-1,2-dihydropyridin-3-yl)carbonyl]amino}-5-carbamimidamidopentanoic acid•TFA]
